Assay results reported in patent US20190352276A1, “INHIBITORS OF BRUTON'S TYROSINE KINASE” (Joint Stock Company "Biocad", priority 2016, published 2019).
Where two headings read alike, the source gives them in different places.

Experiments:
[1] = target: T1, recombinant Btk kinase enzyme (Homo sapiens, UniProt Q06187); experiment: In vitro inhibition of Btk kinase activity (ADP-Glo); assay type: biochemical; details: read-out: IC50 kinase BTK
T1 construct: purchased SignalChem B10-10H
In short: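 IC50 obtained by four-parameter logistic fitting of ADP-Glo luminescence, which reports ADP generated by the kinase. Reaction: recombinant Btk enzyme, 50 μM ATP, 0.5 mg/mL Poly(4:1 Glu,Tyr) peptide, incubated 180 minutes at 37° C. with test compound.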

[2] = system: Mino (mantle cell lymphoma); experiment: Antiproliferative activity, Mino cells (Alamar Blue); assay type: cell-based; details: Homo sapiens
In short: (§1)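 IC50 values come from a four-parameter logistic fit of Alamar Blue fluorescence (540 nm excitation, 590 nm emission) read 14-16 h after reagent addition. Before that, the lymphoma lines, about 3*10^4 cells per well in 10% FBS RPMI-1640, were incubated with compound for 72 h at 37 °C, keeping final DMSO below 1%.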

[3] = system: DOHH2 (follicular lymphoma); experiment: Antiproliferative activity, DOHH2 cells (Alamar Blue); assay type: cell-based; details: Homo sapiens, DOHH-2, Table 10, 72 h, average of several tests
In short: as §1

[4] = target: T2, TEC (Homo sapiens, UniProt P42680); experiment: In vitro kinase panel: TEC; assay type: biochemical; details: Table 9 kinase panel
T2 construct: purchased SignalChem T03-10G
T2 sequence (P42680 1-631): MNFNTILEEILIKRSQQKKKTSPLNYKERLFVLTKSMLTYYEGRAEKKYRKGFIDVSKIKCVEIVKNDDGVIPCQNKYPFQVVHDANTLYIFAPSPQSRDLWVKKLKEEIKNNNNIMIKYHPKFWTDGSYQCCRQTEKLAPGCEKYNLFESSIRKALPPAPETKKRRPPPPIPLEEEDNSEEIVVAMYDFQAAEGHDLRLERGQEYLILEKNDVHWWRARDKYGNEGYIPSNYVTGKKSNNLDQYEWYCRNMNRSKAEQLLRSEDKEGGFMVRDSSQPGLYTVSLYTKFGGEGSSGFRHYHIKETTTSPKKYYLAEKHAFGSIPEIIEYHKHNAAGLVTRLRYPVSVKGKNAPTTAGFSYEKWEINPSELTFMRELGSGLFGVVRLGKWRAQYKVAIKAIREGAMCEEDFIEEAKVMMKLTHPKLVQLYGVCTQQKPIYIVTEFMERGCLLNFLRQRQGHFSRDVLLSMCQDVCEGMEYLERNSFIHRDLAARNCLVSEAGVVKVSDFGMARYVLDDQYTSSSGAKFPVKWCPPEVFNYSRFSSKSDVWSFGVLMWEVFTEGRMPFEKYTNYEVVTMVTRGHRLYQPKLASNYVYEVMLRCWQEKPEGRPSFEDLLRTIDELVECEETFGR
Description: The measurements were carried out in a 25 μL reaction volume using a 96-well plate (Corning, #3642). The kinase enzyme and inhibitor were pre-incubated for 10 minutes in the reaction buffer containing 25 mM of MOPS (pH 7.2), 12.5 mM of 0-glycerophosphate, 27 mM of MgCl2, 2 mM of MnCl2, 5 mM of EGTA, 2 mM of EDTA, 0.3 mM of DTT, and 1.2 mg/mL of bovine serum albumin. Staurosporine (Abcam Biochemicals, ab146588) was used as a reference inhibitor and 0.1% DMSO in the reaction buffer—as a negative control. The solution of 0.5 mg/mL peptide substrate and 50 &M ATP in the same buffer were added; the solution was incubated for 180 minutes at 37° C. To detect the amount of ATP taken up during the kinase reaction, the equivalent amount of ADP (from the ADP Glo Detection Kit (Promega, #V9101)) was used according to the protocol. The reaction mixture was equilibrated to room temperature. 25 µL of ADP-Glo Reagent were added into each well; the plate was incubated for 40 minutes. 50 μL of Kinase Detection Reagent were added; the plate was incubated for 30 minutes. The luminescence was measured with multimode plate reader (Tecan Infinite M200Pro, Switzerland). IC50 values were calculated using Magellan 7.2 software (Tecan, Switzerland) approximating experimental points by four-parameter logistic model with the optimization by Levenberg-Marquardt.
For active compounds selected by screening using the target enzyme BTK, the values of IC50 were determined on a kinase panel: EGFR (SignalChem, #E10-11G), ITK (SignalChem, #I13-10G) and TEC (SignalChem, #T03-10G).

[5] = Table 10, 72 h, average of several tests

T1 sequence (Q06187 whole entry): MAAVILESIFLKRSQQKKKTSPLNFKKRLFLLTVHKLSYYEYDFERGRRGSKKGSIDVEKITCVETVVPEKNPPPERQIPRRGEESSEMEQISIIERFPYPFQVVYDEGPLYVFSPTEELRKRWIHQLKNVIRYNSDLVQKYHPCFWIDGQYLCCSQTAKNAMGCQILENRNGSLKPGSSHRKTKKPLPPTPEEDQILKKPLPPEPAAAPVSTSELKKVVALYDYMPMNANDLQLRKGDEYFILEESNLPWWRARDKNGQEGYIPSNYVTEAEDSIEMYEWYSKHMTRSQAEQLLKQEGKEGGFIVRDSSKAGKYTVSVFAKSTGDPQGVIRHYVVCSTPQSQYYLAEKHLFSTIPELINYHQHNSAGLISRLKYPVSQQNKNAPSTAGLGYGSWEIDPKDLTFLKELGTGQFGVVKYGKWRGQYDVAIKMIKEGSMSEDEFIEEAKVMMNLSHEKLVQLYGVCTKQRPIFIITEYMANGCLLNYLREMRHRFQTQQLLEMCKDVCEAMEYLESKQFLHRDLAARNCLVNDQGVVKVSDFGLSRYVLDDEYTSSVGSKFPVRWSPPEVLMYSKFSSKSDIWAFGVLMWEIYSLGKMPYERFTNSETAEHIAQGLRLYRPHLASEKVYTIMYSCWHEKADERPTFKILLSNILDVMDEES

IC50 ([1]; Table 9 kinase panel)	IC50 ([2]; Table 11, 72 h)	IC50 [3]	IC50 ([1]; Table 8, ADP-Glo)	IC50 [2, 5]	IC50 [4]	SMILES
109 nM	7300 nM					C=CC(=O)N1CCC[C@@H](n2nc(-c3ccc(Oc4ccncc4)cc3)c3cncc(Cl)c32)C1 [BCD-BTK-125, (R)-1-(1-acryloylpiperidin-3-yl)-7-chloro-3-(4-(pyridin-4-yloxy)phenyl)-1H-pyrazolo[4,3-c]pyridine]
0.85 nM	10200 nM					C=CC(=O)N1CCC[C@@H](n2nc(-c3ccc(Oc4ccncc4)cc3)c3c(N)ncc(Cl)c32)C1 [BCD-BTK-139, (R)-1-(1-acryloylpiperidin-3-yl)-7-chloro-3-(4-(pyridin-4-yloxy)phenyl)-1H-pyrazolo[4,3-c]pyridin-4-amine]
		7970 nM	19.1 nM	11900 nM	55.2 nM	C=CC(=O)N1CCC[C@@H](n2nc(-c3ccc(C(=O)Nc4ccccn4)cc3)c3cncc(Cl)c32)C1 [BCD-BTK-201]
		8870 nM	74.6 nM	7790 nM	> 500 nM	C=CC(=O)N1CCC[C@@H](n2nc(-c3ccc(Oc4ccncc4C#N)cc3)c3cncc(Cl)c32)C1 [BCD-BTK-202, (R)-4-(4-(1-(1-acryloylpiperidin-3-yl)-7-chloro-1H-pyrazolo[4,3-c]pyridin-3-yl)phenoxy)nicotinonitrile]
		9460 nM	53.5 nM	10500 nM	> 100 nM	C=CC(=O)N1CCC[C@@H](n2nc(-c3ccc(Oc4cccnc4C(N)=O)cc3)c3cncc(Cl)c32)C1 [BCD-BTK-220, 3-(4-{7-chloro-1-[(3R)-1-(prop-2-enoyl)piperidin-3-yl]-1H-pyrazolo[4,3-c]pyridin-3-yl}phenoxy)pyridine-2-carboxamide]
		14900 nM	10.5 nM	9810 nM	> 200 nM	C=CC(=O)N1CCC[C@@H](n2nc(-c3ccc(Oc4cccnc4C#N)cc3)c3cncc(F)c32)C1 [BCD-BTK-230, (R)-3-(4-(1-(1-acryloylpiperidin-3-yl)-7-fluoro-1H-pyrazolo[4,3-c]pyridin-3-yl)phenoxy)picolinonitrile]
		8870 nM	1.17 nM	9600 nM	14.8 nM	C=CC(=O)N1CCC[C@@H](n2nc(-c3ccc(C(=O)Nc4ccccn4)cc3)c3c(N)ncc(C#N)c32)C1 [BCD-BTK-234, (R)-4-(1-(1-acryloylpiperidin-3-yl)-4-amino-7-cyano-1H-pyrazolo[4,3-c]pyridin-3-yl)-N-(pyridine-2-yl)benzamide]
		8180 nM	2.38 nM	14200 nM	6 nM	C=CC(=O)N1CCC[C@@H](n2nc(-c3ccc(Oc4ccncc4)cc3)c3c(N)ncc(OC)c32)C1 [BCD-BTK-239, (R)-1-(1-acryloylpiperidin-3-yl)-4-amine-7-methoxy-3-(4-(pyridin-4-yloxy)phenyl)-1H-pyrazolo[4,3-c]pyridine]
		2000 nM	2.25 nM	14100 nM	3.81 nM	C=CC(=O)N1CCC[C@@H](n2nc(-c3ccc(C(=O)Nc4ccccn4)cc3)c3c(N)ncc(OC)c32)C1 [BCD-BTK-240, (R)-4-(1-(1-acryloylpiperidin-3-yl)-4-amino-7-methoxy-1H-pyrazolo[4,3-c]pyridin-3-yl)-N-(pyridin-2-yl)benzamide]
		8380 nM	1.77 nM	17300 nM	6.61 nM	C=CC(=O)N1CCC[C@@H](n2nc(-c3ccc(C(=O)Nc4ccccn4)cc3)c3c(N)nccc32)C1 [BCD-BTK-242, (R)-4-(1-(1-acryloylpiperidin-3-yl)-4-amino-1H-pyrazolo[4,3-c]pyridin-3-yl)-N-(pyridin-2-yl)benzamide]
		3380 nM	2.71 nM	3650 nM	7.21 nM	C=CC(=O)N1CCC[C@@H](n2nc(-c3ccc(C(=O)Nc4cc(C(F)(F)F)ccn4)cc3)c3c(N)ncc(Cl)c32)C1 [BCD-BTK-251, (R)-4-(1-(1-acryloylpiperidin-3-yl)-4-amino-7-chloro-1H-pyrazolo[4,3-c]pyridin-3-yl)-N-(4-(trifluoromethyl)pyridin-2-yl)benzamide]
		19600 nM	14.6 nM	4460 nM	> 100 nM	C=CC(=O)N1CCC[C@@H](n2nc(-c3ccc(C(=O)Nc4cc(C(F)(F)CCC)ccn4)cc3)c3cncc(Cl)c32)C1 [BCD-BTK-252, (R)-4-(1-(1-acryloylpiperidin-3-yl)-7-chloro-1H-pyrazolo[4,3-c]pyridin-3-yl)-N-(4-(1,1-difluorobutyl)pyridin-2-yl)benzamide]
		15100 nM	1.17 nM	17300 nM	2.92 nM	C=CC(=O)N1CCC[C@@H](n2nc(-c3ccc(C(=O)Nc4ncccc4F)cc3)c3c(N)ncc(C#N)c32)C1 [BCD-BTK-258, 4-{4-amino-7-cyano-1-[(3R)-1-(prop-2-enoyl)piperidin-3-yl]-1H-pyrazolo[4,3-c]pyridin-3-yl}-N-(3-fluoropyridin-2-yl)benzamide]
		20700 nM	7.34 nM	3350 nM	77.8 nM	C=CC(=O)N1CCC[C@@H](n2nc(-c3cnc(C(=O)Nc4cc(C(F)(F)CCC)ccn4)nc3)c3cncc(Cl)c32)C1 [BCD-BTK-292, (R)-5-(1-(1-acryloylpiperidin-3-yl)-7-chloro-1H-pyrazolo[4,3-c]pyridin-3-yl)-N-(4-(1,1-difluorobutyl)pyridin-2-yl)pyrimidine-2-carboxamide]
